Values of other authors in article PMC12308805, “Ultrahigh-Throughput Virtual Screening Strategies against PPI Targets: A Case Study of STAT Inhibitors” (Journal of Chemical Information and Modeling, 2025).
Where two headings read alike, the source gives them in different places.

Tested on: STAT3
Details: cited from earlier work; for Type: retrospective screening set for STAT3 SH2 domain (PDB 6QHD), ref DUD-E
[1] = sheet 6QHD_actives_decoys, decoys are presumed inactives, not tested
[2] = sheet 6QHD_actives_decoys, decoys generated with DUD-E and presumed inactive, not tested

Row | SMILES | Type [1] | Type [2] | other results
1 | CCN1C[C@]2(COC)[C@H](O)C[C@H](OC)[C@@]34[C@@H]2[C@@H](OC)[C@@H]([C@@H]13)[C@]1(OC(C)=O)[C@H]2[C@@H](OC(=O)c3ccccc3)[C@](O)(C[C@]24O)[C@@H](OC)[C@@H]1O [Decoy802] | Inactive (Decoy) | – | –
2 | O=C[C@H](O)[C@@H](O)[C@H](O)[C@@H](CO)O[P@](=O)(OC[C@H]1O[C@@H](n2ccc(=O)[nH]c2=O)[C@H](O)[C@@H]1O)OP(=O)(O)O [Decoy701] | – | Inactive (Decoy) | –
3 | COCC(=O)Nc1c(I)c(C(=O)NC[C@H](O)CO)c(I)c(C(=O)N(C)C[C@H](O)CO)c1I [Decoy333] | – | Inactive (Decoy) | –
4 | COc1cc(/C=C/C(=O)OC[C@H]2O[C@H](O[C@]3(CO)O[C@H](CO)[C@@H](O)[C@@H]3O)[C@H](O)[C@@H](O)[C@@H]2O)cc(OC)c1O [Decoy815] | Inactive (Decoy) | – | –
5 | CCSc1nnc(NC(=O)CSc2n[nH]c(N/N=C/c3ccc(F)cc3)n2)s1 [Decoy803] | Inactive (Decoy) | – | –
6 | CCOC(=O)CNC(=O)[C@H](c1ccc(O)cc1)N(C(=O)c1snc(C(N)=O)c1N)c1ccccc1CC [Decoy513] | – | Inactive (Decoy) | –
7 | CC[C@H](C)[C@H](O)C(=O)O[C@H](C(=O)O[C@H](C(=O)OC[C@H](O)[C@H](O)[C@H](O)[C@H](O)CO)[C@@H](C)CC)[C@@H](C)CC [Decoy861] | Inactive (Decoy) | – | –
8 | COCCN(C(=O)COc1cc(Cl)c(Cl)cc1Cl)c1c(N)n(CC(C)C)c(=O)[nH]c1=O [Decoy712] | – | Inactive (Decoy) | –
9 | O=C(COCCN1CCN([C@@H](c2ccccc2)c2ccc(Cl)cc2)CC1)O[C@@H]1O[C@@H](CO)[C@@H](O[C@@H]2O[C@@H](CO)[C@H](O)[C@H](O)[C@H]2O)[C@H](O)[C@H]1O [Decoy462] | – | Inactive (Decoy) | –
10 | Nn1c(SCC(=O)N/N=C/c2ccccc2OCc2ccccc2Cl)nnc1-c1ccncc1 [Decoy718] | – | Inactive (Decoy) | –
11 | C=C(CCO)C(=O)OC[C@@H]1OC[C@H](OC(=O)C(=C)CCO[C@@H]2O[C@H](COC(=O)C(=C)CCO)[C@@H](O)[C@H](O)[C@H]2O)[C@@H](O)[C@H]1O [Decoy491] | – | Inactive (Decoy) | –
12 | CCOC(=O)c1ccc(NC(=O)C(=O)NCc2ccc(/C=C3/C(=O)N(c4ccc(C)c(Cl)c4)C(C)=C3C(=O)OC)o2)cc1 [Decoy845] | Inactive (Decoy) | – | –
13 | Cc1cc(C)n(CCCNC(=O)c2cc(=O)[nH]c3ccc(S(=O)(=O)N4CCOCC4)cc23)n1 [Decoy597] | – | Inactive (Decoy) | –
14 | COC(=O)[C@@H](/C(=N/N)C(=O)Nc1cc(Cl)ccc1Cl)c1nc2ccc([N+](=O)[O-])cc2nc1O [Decoy349] | – | Inactive (Decoy) | –
15 | COc1cc(NC(=O)COC(=O)c2cc(OC)c(OC)cc2NC(=O)c2ccco2)cc(OC)c1 [Decoy388] | – | Inactive (Decoy) | –
16 | COc1cc2cc(Oc3ccc(CCC(=O)O)c(O[C@@H]4O[C@H](CO)[C@@H](O)[C@H](O)[C@H]4O)c3)c(=O)oc2cc1O [Decoy393] | – | Inactive (Decoy) | –
17 | CCCCSc1nnc(/N=C(\O)CSc2n[nH]c(N/N=C/c3c(C)nn(C(C)C)c3C)n2)s1 [Decoy797] | Inactive (Decoy) | – | –
18 | COC(=O)c1[nH]c(C)c(C(=O)C2=C(O)C(=O)N(CCN3CCOCC3)[C@H]2c2cc(OC)c(OC)c(OC)c2)c1C [Decoy873] | Inactive (Decoy) | – | –
19 | C[C@@H](NC(=O)[C@@H](N)Cc1ccc(O)cc1)C(=O)NCC(=O)N[C@@H](Cc1ccccc1)C(=O)NNC(=O)[C@H](Cc1ccccc1)NC(=O)CNC(=O)[C@@H](C)NC(=O)[C@@H](N)Cc1ccc(O)cc1 [Decoy945] | Inactive (Decoy) | – | –
20 | C=CCOc1ccc([C@H]2C(C(=O)c3ccc(S(=O)(=O)N(C)C)cc3)=C(O)C(=O)N2CCCN(C)C)cc1OC [Decoy790] | Inactive (Decoy) | – | –
21 | CCOc1ccc(-c2n[nH]c3c2[C@H](c2cc(OC)c(OC(C)=O)c(OC)c2)C(C#N)=C(N)O3)cc1 [Decoy509] | – | Inactive (Decoy) | –
22 | NC(=O)CC[C@H](NC(=O)[C@@H]1Cc2cccc3c2N1C(=O)[C@@H](NC(=O)/C=C/c1ccc(OP(=O)(O)O)cc1)C=C3)C(=O)NCc1ccccc1 [CHEMBL508912] | – | – | Type (known STAT3 active) (sheet 6QHD_actives_decoys, known STAT3 actives of the retrospective screening set, ref ChEMBL / literature): Active
23 | COc1ccc(/C=N\N=C2/NC(=O)[C@@H](CC(=O)Nc3ccc([N+](=O)[O-])cc3)S2)c(C(=O)O)c1OC [Decoy694] | – | Inactive (Decoy) | –
24 | CCOc1ccccc1NC(=O)CSC1=C(C#N)[C@H](c2ccco2)C(/C(O)=N/c2ccc(S(N)(=O)=O)cc2)=C(C)N1 [Decoy831] | Inactive (Decoy) | – | –
25 | CCN(CC)S(=O)(=O)c1ccc(NC(=O)CSc2n[nH]c(N/N=C/c3ccccc3F)n2)cc1 [Decoy890] | Inactive (Decoy) | – | –
26 | CC[C@H]1OC(=O)[C@@H](C)[C@@H](O[C@@H]2C[C@@](C)(OC)[C@H](O)[C@H](C)O2)[C@@H](C)[C@@H](O[C@H]2O[C@@H](C)C[C@@H](N(C)C)[C@H]2O)[C@](C)(OC)C[C@@H](C)C(=O)[C@@H](C)[C@@H](O)[C@]1(C)O [Decoy775] | Inactive (Decoy) | – | –

Row | SMILES | Type [1] | Type [2] | other results
27 | COC(=O)c1sc(NC(=O)CCCS(=O)(=O)c2nc(-c3ccc(OC)c(OC)c3)cc(C(F)(F)F)n2)c(C(N)=O)c1C [Decoy915] | Inactive (Decoy) | – | –
28 | CCOC(=O)c1sc(NC(=O)CSc2nnc(CNC(=O)c3ccccc3OC)n2C)c(C(=O)OCC)c1C [Decoy843] | Inactive (Decoy) | – | –
29 | CCOC(=O)CNS(=O)(=O)c1cc(-c2nnc(Nc3ccc(OCC(=O)NC)cc3)c3ccccc23)ccc1C [Decoy401] | – | Inactive (Decoy) | –
30 | O=C(Nc1ccc([N+](=O)[O-])cc1[N+](=O)[O-])[C@@](F)(OC(F)(F)[C@@](F)(OC(F)(F)C(F)(F)C(F)(F)F)C(F)(F)F)C(F)(F)F [Decoy658] | – | – | Type (sheet 6QHD_actives_decoys, […]): Inactive (Decoy)
31 | CCN(CC)S(=O)(=O)c1ccc(NC(=O)CCCCCCCC(=O)Nc2ccc(S(=O)(=O)N(CC)CC)cc2)cc1 [Decoy744] | Inactive (Decoy) | – | –
32 | COC(=O)[C@@H]1[C@H](NC(=O)[C@@H]2CCOC2)c2cc(NCC(C)(C)C)cnc2N1CCc1c[nH]c2ccccc12 [Decoy468] | – | Inactive (Decoy) | –
33 | C[C@H](O)C[C@H](O)[C@@H](SC[C@@H](O)C(=O)O)[C@@H](O)/C=C/Cc1cc2c(Cl)c(O)cc(O)c2c(=O)o1 [Decoy782] | Inactive (Decoy) | – | –
34 | C=C(CCO)C(=O)OC[C@H]1OC[C@@H](OC(=O)C(=C)CCO[C@@H]2O[C@H](COC(=O)C(=C)CCO)[C@@H](O)[C@H](O)[C@H]2O)[C@@H](O)[C@H]1O [Decoy492] | – | Inactive (Decoy) | –
35 | COC(=O)c1[nH]c(C)c(C(=O)C2=C(O)C(=O)N(CCCN3CCOCC3)[C@@H]2c2cc(OC)c(OC)c(OC)c2)c1C [Decoy711] | – | Inactive (Decoy) | –
36 | CCOC(=O)Cn1nnnc1[C@@H](CC)N(CCc1cccc(C)c1)Cc1cc2cc(OCC)ccc2[nH]c1=O [Decoy609] | – | Inactive (Decoy) | –
37 | Cn1c(CNc2ccc(C(=N)N)cc2)nc2cc(C(=O)N(CCC(=O)O[C@@H]3O[C@H](C(=O)O)[C@@H](O)[C@H](O)[C@H]3O)c3ccccn3)ccc21 [Decoy516] | – | Inactive (Decoy) | –
38 | COC(=O)[C@@H]1O[C@H](OCC(=O)[C@@]2(O)CC[C@@H]3[C@H]4CCC5=CC(=O)CC[C@@]5(C)[C@@H]4[C@@H](O)C[C@@]32C)[C@@H](OC(C)=O)[C@H](OC(C)=O)[C@H]1OC(C)=O [Decoy633] | – | Inactive (Decoy) | –
39 | COC(=O)[C@@H]1O[C@@H](O[C@@H]2CC[C@@]3(C)[C@@H](CC[C@H]4[C@H]3C(=O)C[C@@]3(C)[C@@H]4CC[C@]3(O)/C(COC(C)=O)=N/NC(N)=O)C2)[C@H](OC(C)=O)[C@@H](OC(C)=O)[C@@H]1OC(C)=O [Decoy959] | Inactive (Decoy) | – | –
40 | COc1c([C@@H]2OC[C@H](OC(C)=O)[C@@H](OC(C)=O)[C@H]2OC(C)=O)c(O)cc2oc(-c3ccc(O[C@H]4O[C@@H](CO)[C@@H](O)[C@@H](O)[C@H]4O)cc3)cc(=O)c12 [Decoy411] | – | Inactive (Decoy) | –
41 | O=c1c(-c2ccc(O[C@@H]3O[C@H](CO)[C@@H](O)[C@H](O)[C@H]3O)cc2)coc2c(CN3CCCC3)c(O)c(CN3CCCC3)c(O)c12 [Decoy428] | – | Inactive (Decoy) | –
42 | CC[C@@H]1OC(=O)[C@@H](C)[C@@H](O[C@@H]2C[C@@](C)(OC)[C@H](O)[C@H](C)O2)[C@@H](C)[C@@H](O[C@H]2O[C@@H](C)C[C@@H](N(C)C)[C@H]2O)[C@](C)(O)C[C@@H](C)/C(=N\OCOCCOC)[C@@H](C)[C@@H](O)[C@]1(C)O [Decoy579] | – | Inactive (Decoy) | –
43 | CCOc1ccc2[nH]c(=O)c(CN(CCc3ccc(OC)c(OC)c3)Cc3nnnn3C3CCCC3)cc2c1 [Decoy799] | Inactive (Decoy) | – | –
44 | CCOc1cc(/C=N/NC(=O)c2nnn(-c3nonc3N)c2CSC2=NCCS2)cc(Br)c1OCc1cccc(C)c1 [Decoy594] | – | Inactive (Decoy) | –
45 | CCSc1nnc(NC(=O)CSc2nnc(CNC(=O)c3cccs3)n2-c2ccccc2OC)s1 [Decoy853] | Inactive (Decoy) | – | –
46 | C/C=C1/[C@H](O[C@@H]2O[C@H](CO)[C@@H](O)[C@H](O)[C@H]2O)OC=C(C(=O)OC)[C@H]1CC(=O)OCCc1ccc(O)c(O)c1 [Decoy367] | – | Inactive (Decoy) | –
47 | O=P(O)(O)CCN1CCCN(CCP(=O)(O)O)CCN(CCP(=O)(O)O)CCCN(CCP(=O)(O)O)CC1 [Decoy548] | – | Inactive (Decoy) | –
48 | CCN(CC)Cc1c(C(=O)N/N=C/c2cc(Cl)ccc2OCc2c(F)cccc2Cl)nnn1-c1nonc1N [Decoy844] | Inactive (Decoy) | – | –
49 | CC(C)(C)OC(=O)N[C@H](CSSC[C@@H](NC(=O)OC(C)(C)C)C(=O)OC[C@H]1O[C@H](O)[C@@H](O)[C@@H](O)[C@H]1O)C(=O)OC[C@H]1O[C@H](O)[C@@H](O)[C@@H](O)[C@H]1O [Decoy536] | – | Inactive (Decoy) | –
50 | CC(=O)N[C@@H](Cc1ccc(OP(=O)(O)O)cc1)C(=O)N[C@H]1CCc2cccc3c2N(C1=O)[C@H](C(=O)N[C@@H](CCC(N)=O)C(=O)N[C@H](C(N)=O)[C@@H](C)O)C3 [CHEMBL503765] | – | – | Type (known STAT3 active): Active
51 | COc1cc(C(=O)NCC(=O)N/N=C/c2cc(Br)ccc2OC(=O)c2ccc(C)cc2)cc(OC)c1OC [Decoy362] | – | Inactive (Decoy) | –
